According to patent publication US8541588B2, “Sulfonamide derivatives” (Pfizer Limited, priority 2009, dated 2013):

Target: T1, Nav1.7 (or SCN9A) channel; HEK cells stably transfected with hSCN9A (Homo sapiens, UniProt Q15858)
T1 construct: expressed in transfected cells
Assay: Nav1.7 block, PatchXpress 7000 automated whole-cell voltage clamp, estimated IC50 (EIC50)
Type: cell-based
Conditions: estimated IC50; hSCN9A HEK cells, PatchXpress platform; Examples 283-814

T1 sequence (Q15858 whole entry): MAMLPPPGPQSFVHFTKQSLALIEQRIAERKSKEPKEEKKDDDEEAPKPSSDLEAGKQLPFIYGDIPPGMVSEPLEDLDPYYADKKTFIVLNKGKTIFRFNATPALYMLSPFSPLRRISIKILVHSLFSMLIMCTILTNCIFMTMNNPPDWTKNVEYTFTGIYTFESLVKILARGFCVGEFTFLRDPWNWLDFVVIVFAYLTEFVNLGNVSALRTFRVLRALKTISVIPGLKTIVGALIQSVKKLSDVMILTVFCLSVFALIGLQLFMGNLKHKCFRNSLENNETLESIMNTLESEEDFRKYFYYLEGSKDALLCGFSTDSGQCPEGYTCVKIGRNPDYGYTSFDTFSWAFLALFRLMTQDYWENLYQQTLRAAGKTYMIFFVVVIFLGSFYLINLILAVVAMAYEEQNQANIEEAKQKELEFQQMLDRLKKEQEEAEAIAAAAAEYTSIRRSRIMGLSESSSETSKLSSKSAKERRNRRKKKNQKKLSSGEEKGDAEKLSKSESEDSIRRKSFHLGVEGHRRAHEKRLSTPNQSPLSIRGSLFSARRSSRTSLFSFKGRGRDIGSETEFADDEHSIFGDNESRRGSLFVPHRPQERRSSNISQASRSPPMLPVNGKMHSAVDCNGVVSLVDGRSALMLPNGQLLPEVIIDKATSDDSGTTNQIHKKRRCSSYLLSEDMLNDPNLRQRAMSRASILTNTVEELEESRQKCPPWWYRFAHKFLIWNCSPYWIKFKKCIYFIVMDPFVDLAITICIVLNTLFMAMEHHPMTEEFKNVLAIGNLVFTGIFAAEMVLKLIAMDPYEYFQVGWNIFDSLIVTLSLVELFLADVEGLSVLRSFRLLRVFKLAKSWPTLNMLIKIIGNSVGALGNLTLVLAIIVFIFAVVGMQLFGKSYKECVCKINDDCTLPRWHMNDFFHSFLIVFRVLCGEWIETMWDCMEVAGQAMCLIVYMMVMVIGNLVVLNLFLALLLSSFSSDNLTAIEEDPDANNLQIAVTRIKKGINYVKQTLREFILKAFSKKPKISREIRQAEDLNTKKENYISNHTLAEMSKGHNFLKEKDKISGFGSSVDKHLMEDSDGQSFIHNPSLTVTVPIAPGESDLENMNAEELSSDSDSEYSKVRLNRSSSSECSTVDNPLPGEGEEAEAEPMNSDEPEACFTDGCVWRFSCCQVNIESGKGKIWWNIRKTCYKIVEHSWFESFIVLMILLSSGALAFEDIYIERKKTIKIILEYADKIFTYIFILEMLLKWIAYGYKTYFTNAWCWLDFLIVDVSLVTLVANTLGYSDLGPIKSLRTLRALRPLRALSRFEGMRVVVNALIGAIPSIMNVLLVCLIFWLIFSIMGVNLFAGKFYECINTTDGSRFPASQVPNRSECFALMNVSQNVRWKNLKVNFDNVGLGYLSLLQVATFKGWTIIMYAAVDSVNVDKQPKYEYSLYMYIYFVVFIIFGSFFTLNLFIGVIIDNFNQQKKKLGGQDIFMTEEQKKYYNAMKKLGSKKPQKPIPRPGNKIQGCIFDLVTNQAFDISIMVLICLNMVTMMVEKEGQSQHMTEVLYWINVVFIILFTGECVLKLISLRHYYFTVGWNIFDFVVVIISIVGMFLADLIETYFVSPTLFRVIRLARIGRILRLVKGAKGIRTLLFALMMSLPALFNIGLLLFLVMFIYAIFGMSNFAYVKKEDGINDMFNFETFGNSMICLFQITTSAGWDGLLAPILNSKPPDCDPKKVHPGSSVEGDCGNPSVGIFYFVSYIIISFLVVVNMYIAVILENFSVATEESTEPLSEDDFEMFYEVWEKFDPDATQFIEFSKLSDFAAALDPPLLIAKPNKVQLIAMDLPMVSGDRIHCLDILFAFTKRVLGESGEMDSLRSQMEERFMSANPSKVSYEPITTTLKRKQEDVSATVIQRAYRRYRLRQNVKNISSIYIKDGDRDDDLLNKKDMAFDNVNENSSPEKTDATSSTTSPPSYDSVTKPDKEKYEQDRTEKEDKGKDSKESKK

Row | Compound | IC50 [nM]
1 | Cc1cn(C(F)F)nc1-c1ccc(Oc2ccc(S(=O)(=O)Nc3nccs3)cc2C#N)cc1 [Example 471, 3-cyano-4-{4-[1-(difluoromethyl)-4-methyl-1H-pyrazol-3-yl]phenoxy}-N-1,3-thiazol-2-ylbenzenesulfonamide] | 2700
2 | Cn1nc(C(F)(F)F)cc1-c1cc(F)c(F)c(Oc2ccc(S(=O)(=O)Nc3nccs3)cc2C#N)c1 [Example 472, 3-cyano-4-{2,3-difluoro-5-[1-methyl-3-(trifluoromethyl)-1H-pyrazol-5-yl]phenoxy}-N-1,3-thiazol-2-ylbenzenesulfonamide] | 970
3 | CCn1nc(C(F)(F)F)cc1-c1ccc(Oc2ccc(S(=O)(=O)Nc3ncns3)cc2Cl)cc1 [Example 473, 3-chloro-4-{4-[1-ethyl-3-(trifluoromethyl)-1H-pyrazol-5-yl]phenoxy}-N-1,2,4-thiadiazol-5-ylbenzenesulfonamide] | 72
4 | CC(C)(C)n1nccc1-c1cc(Cl)ccc1Oc1ccc(S(=O)(=O)Nc2ncns2)cc1Cl [Example 474, 4-[2-(1-tert-butyl-1H-pyrazol-5-yl)-4-chlorophenoxy]-3-chloro-N-1,2,4-thiadiazol-5-ylbenzenesulfonamide] | 44
5 | O=S(=O)(Nc1ncns1)c1ccc(Oc2ccc(Cl)cc2-c2ccn[nH]2)c(Cl)c1 [Example 475, 3-chloro-4-[4-chloro-2-(1H-pyrazol-5-yl)phenoxy]-N-1,2,4-thiadiazol-5-ylbenzenesulfonamide] | 7.5
6 | CC(C)(C)n1nccc1-c1cc(F)ccc1Oc1ccc(S(=O)(=O)Nc2ncns2)cc1Cl [Example 476, 4-[2-(1-tert-butyl-1H-pyrazol-5-yl)-4-fluorophenoxy]-3-chloro-N-1,2,4-thiadiazol-5-ylbenzenesulfonamide] | 170
7 | O=S(=O)(Nc1ncns1)c1ccc(Oc2ccc(Cl)cc2C2CCNCC2)c(Cl)c1 [Example 477, 3-chloro-4-(4-chloro-2-piperidin-4-ylphenoxy)-N-1,2,4-thiadiazol-5-ylbenzenesulfonamide] | 16
8 | O=S(=O)(Nc1ncns1)c1ccc(Oc2ccc(F)cc2-c2ccn[nH]2)c(Cl)c1 [Example 478, 3-chloro-4-[4-fluoro-2-(1H-pyrazol-5-yl)phenoxy]-N-1,2,4-thiadiazol-5-ylbenzenesulfonamide] | 44
9 | CCn1nc(C(F)(F)F)cc1-c1cccc(Oc2ccc(S(=O)(=O)Nc3ncc(F)s3)cc2C#N)c1 [Example 479, 3-cyano-4-{3-[1-ethyl-3-(trifluoromethyl)-1H-pyrazol-5-yl]phenoxy}-N-(5-fluoro-1,3-thiazol-2-yl)benzenesulfonamide] | 230
10 | N#Cc1cc(S(=O)(=O)Nc2nccs2)ccc1Oc1ccc(-c2cc(C(F)(F)F)n(CCCF)n2)cc1F [Example 480, 3-cyano-4-{2-fluoro-4-[1-(3-fluoropropyl)-5-(trifluoromethyl)-1H-pyrazol-3-yl]phenoxy}-N-1,3-thiazol-2-ylbenzenesulfonamide] | >1000
11 | Cc1cc(-c2cccc(Oc3ccc(S(=O)(=O)Nc4nccs4)cc3C#N)c2)n(CCN(C)C)n1 [Example 481, 3-cyano-4-(3-{1-[2-(dimethylamino)ethyl]-3-methyl-1H-pyrazol-5-yl}phenoxy)-N-1,3-thiazol-2-ylbenzenesulfonamide] | 1700
12 | N#Cc1cc(S(=O)(=O)Nc2nccs2)ccc1Oc1ccc(-c2cn(CC(F)(F)F)nc2N)cc1 [Example 482, 4-{4-[3-amino-1-(2,2,2-trifluoroethyl)-1H-pyrazol-4-yl]phenoxy}-3-cyano-N-1,3-thiazol-2-ylbenzenesulfonamide] | >1000
13 | Cn1cc(-c2ccc(Oc3ccc(S(=O)(=O)Nc4nccs4)cc3C#N)cc2)c(N)n1 [Example 483, 4-[4-(3-amino-1-methyl-1H-pyrazol-4-yl)phenoxy]-3-cyano-N-1,3-thiazol-2-ylbenzenesulfonamide] | >1000
14 | CC1CN(c2ccc(Oc3ccc(S(=O)(=O)Nc4nccs4)cc3C#N)cc2)C(=O)N1 (stereo not drawn) [Example 484, 3-cyano-4-[4-(4-methyl-2-oxoimidazolidin-1-yl)phenoxy]-N-1,3-thiazol-2-ylbenzenesulfonamide] | >1000
15 | CC(C)C1CN(c2ccc(Oc3ccc(S(=O)(=O)Nc4nccs4)cc3C#N)cc2)C(=O)N1 (stereo not drawn) [Example 485, 3-cyano-4-[4-(4-isopropyl-2-oxoimidazolidin-1-yl)phenoxy]-N-1,3-thiazol-2-ylbenzenesulfonamide] | >1000
16 | N#Cc1cc(S(=O)(=O)Nc2nccs2)ccc1Oc1ccc(N2CCNC2=O)cc1 [Example 486, 3-cyano-4-[4-(2-oxoimidazolidin-1-yl)phenoxy]-N-1,3-thiazol-2-ylbenzenesulfonamide] | >1000
17 | CN1CCN(c2ccc(Oc3ccc(S(=O)(=O)Nc4nccs4)cc3C#N)cc2)C1=O [Example 487, 3-cyano-4-[4-(3-methyl-2-oxoimidazolidin-1-yl)phenoxy]-N-1,3-thiazol-2-ylbenzenesulfonamide] | >1000
18 | N#Cc1cc(S(=O)(=O)Nc2nccs2)ccc1Oc1ccc(N2CCCC2=O)cc1 [Example 488, 3-cyano-4-[4-(2-oxopyrrolidin-1-yl)phenoxy]-N-1,3-thiazol-2-ylbenzenesulfonamide] | >1000

Row | Compound | IC50 [nM]
19 | CCc1cc(-n2cccn2)ccc1Oc1ccc(S(=O)(=O)Nc2nccs2)cc1C#N [Example 489, 3-cyano-4-[2-ethyl-4-(1H-pyrazol-1-yl)phenoxy]-N-1,3-thiazol-2-ylbenzenesulfonamide] | 1200
20 | CCc1cc(-n2ccc(C(F)(F)F)n2)ccc1Oc1ccc(S(=O)(=O)Nc2nccs2)cc1C#N [Example 490, 3-cyano-4-{2-ethyl-4-[3-(trifluoromethyl)-1H-pyrazol-1-yl]phenoxy}-N-1,3-thiazol-2-ylbenzenesulfonamide] | 660
21 | N#Cc1cc(S(=O)(=O)Nc2nccs2)ccc1Oc1ccc(-n2cccn2)cc1C(F)(F)F [Example 491, 3-cyano-4-[4-(1H-pyrazol-1-yl)-2-(trifluoromethyl)phenoxy]-N-1,3-thiazol-2-ylbenzenesulfonamide] | >1000
22 | N#Cc1cc(S(=O)(=O)Nc2nccs2)ccc1Oc1ccc(-n2ccc(C(F)(F)F)n2)cc1C(F)(F)F [Example 492, 3-cyano-N-1,3-thiazol-2-yl-4-{2-(trifluoromethyl)-4-[3-(trifluoromethyl)-1H-pyrazol-1-yl]phenoxy}benzenesulfonamide] | 1500
23 | N#Cc1cc(S(=O)(=O)Nc2nccs2)ccc1Oc1ccc(Cl)cc1CN1CCOCC1 [Example 493, 4-[4-chloro-2-(morpholin-4-ylmethyl)phenoxy]-3-cyano-N-1,3-thiazol-2-ylbenzenesulfonamide] | 580
24 | Cn1ccc(-c2ccc(F)cc2Oc2ccc(S(=O)(=O)Nc3nccs3)cc2C#N)n1 [Example 494, 3-cyano-4-[5-fluoro-2-(1-methyl-1H-pyrazol-3-yl)phenoxy]-N-1,3-thiazol-2-ylbenzenesulfonamide] | 2500
25 | COC(=O)c1cc(Oc2ccc(S(=O)(=O)Nc3nccs3)cc2C#N)ccc1-n1cc(Cl)cn1 [Example 495, methyl 2-(4-chloro-1H-pyrazol-1-yl)-5-{2-cyano-4-[(1,3-thiazol-2-ylamino)sulfonyl]phenoxy}benzoate] | >1000
26 | COCc1cc(Oc2ccc(S(=O)(=O)Nc3nccs3)cc2C#N)ccc1-n1cc(Cl)cn1 [Example 496, 4-[4-(4-chloro-1H-pyrazol-1-yl)-3-(methoxymethyl)phenoxy]-3-cyano-N-1,3-thiazol-2-ylbenzenesulfonamide] | 3800
27 | N#Cc1cc(S(=O)(=O)Nc2nccs2)ccc1Oc1ccc(-n2cc(Cl)cn2)c(C(=O)O)c1 [Example 497, 2-(4-chloro-1H-pyrazol-1-yl)-5-{2-cyano-4-[(1,3-thiazol-2-ylamino)sulfonyl]phenoxy}benzoic acid] | >1000
28 | N#Cc1cc(S(=O)(=O)Nc2ncns2)ccc1Oc1ccc(F)cc1-c1ccn[nH]1 [Example 499, 3-cyano-4-[4-fluoro-2-(1H-pyrazol-5-yl)phenoxy]-N-1,2,4-thiadiazol-5-ylbenzenesulfonamide] | 190
29 | CCn1nc(C(F)(F)F)cc1-c1ccc(Oc2ccc(S(=O)(=O)Nc3ncns3)cc2C#N)cc1 [Example 500, 3-cyano-4-{4-[1-ethyl-3-(trifluoromethyl)-1H-pyrazol-5-yl]phenoxy}-N-1,2,4-thiadiazol-5-ylbenzenesulfonamide] | 88
30 | Cn1nccc1-c1cc(Br)ccc1Oc1ccc(S(=O)(=O)Nc2ncns2)cc1C#N [Example 501, 4-[4-bromo-2-(1-methyl-1H-pyrazol-5-yl)phenoxy]-3-cyano-N-1,2,4-thiadiazol-5-ylbenzenesulfonamide] | 40
31 | N#Cc1cc(S(=O)(=O)Nc2ncns2)ccc1Oc1ccc(OC(F)(F)F)cc1-c1cn[nH]c1 [Example 502, 3-cyano-4-[2-(1H-pyrazol-4-yl)-4-(trifluoromethoxy)phenoxy]-N-1,2,4-thiadiazol-5-ylbenzenesulfonamide] | 22
32 | N#Cc1cc(S(=O)(=O)Nc2ncns2)ccc1Oc1ccc(Br)cc1-c1cn[nH]c1 [Example 503, 4-[Bromo-2-(1H-pyrazol-4-yl)phenoxy]-3-cyano-N-1,2,4-thiadiazol-5-ylbenzenesulfonamide] | 7
33 | CC(=O)c1cccc(-c2cc(Cl)ccc2Oc2ccc(S(=O)(=O)Nc3ncns3)cc2C#N)c1 [Example 504, 4-[(3′-acetyl-5-chlorobiphenyl-2-yl)oxy]-3-cyano-N-1,2,4-thiadiazol-5-ylbenzenesulfonamide] | 4.9
34 | N#Cc1cc(S(=O)(=O)Nc2ncns2)ccc1Oc1ccc(Cl)cc1C1CCNCC1 [Example 505, 4-(4-chloro-2-piperidin-4-ylphenoxy)-3-cyano-N-1,2,4-thiadiazol-5-ylbenzenesulfonamide] | 50
35 | N#Cc1cc(S(=O)(=O)Nc2ncns2)ccc1Oc1ccc(I)cc1-c1ccn[nH]1 [Example 506, 3-cyano-4-[4-iodo-2-(1H-pyrazol-5-yl)phenoxy]-N-1,2,4-thiadiazol-5-ylbenzenesulfonamide] | 11
36 | Cn1nccc1-c1ccc(I)cc1Oc1ccc(S(=O)(=O)Nc2ncns2)cc1C#N [Example 507, 3-cyano-4-[5-iodo-2-(1-methyl-1H-pyrazol-5-yl)phenoxy]-N-1,2,4-thiadiazol-5-ylbenzenesulfonamide] | 11
